In patent EP0435794A1, “Alkenyl- or heteroaryl thio, sulfone, sulfoxy herbicides” (RHONE-POULENC AGROCHIMIE, priority 1989, dated 1991):

Legend:
Format in all cases: in vivo
Echinochloa crus-galli = assay: Exemple C: selectivity test in field crops, pre-emergence (weed); details: 24 days
Text: (§1) Exemple C - Essai de sélectivité en grandes cultures avec application herbicide, en prélevée des espèces végétales
(§2) Dans des pots de 7 X 7 X 8 cm remplis de terre agricole légère, on sème un nombre de graines déterminé en fonction de l'espèce végétale et de la grosseur de la graine.
(§3) On recouvre ensuite les graines d'une couche de terre d'environ 3 mm d'épaisseur.
(§4) Les pots sont alors traités par pulvérisation de bouillie en quantité correspondant à une dose volumique d'application de 500 l/ha et contenant la matière active à la concentration désirée.
(§5) La bouillie a été préparée de la même manière qu'à l'exemple A.
(§6) Les pots traités sont ensuite placés dans des bacs destinés à recevoir l'eau d'arrosage, en subirrigation, et maintenus pendant 24 jours à température ambiante sous 70 % d'humidité relative.
(§7) Le relevé est effectué de la façon suivante:
(§8) Au bout de 24 jours, on mesure un pourcentage (D) de destruction du nombre de pieds dans le pot traité par rapport au nombre de plantes dans les pots non traités (témoin). On mesure, sur les plantes traitées restantes, le pourcentage de réduction de taille (RT) par rapport aux plantes témoins.
(§9) Le pourcentage de volume foliaire non détruit par le produit est donc donné par la formule: ([100-D] X [100-RT])/(100)= A [formula]
(§10) Cette valeur A est transformée en notation de 0 à 5 selon l'échelle suivante:
(§11) Ainsi, un produit est jugé comme sélectif vis à vis de la culture lorsque la valeur A notée est de 0 ou 1.
(§12) Les résultats obtenus sont présentés dans l'exemple C pour des doses d'application de 500, 1000, 2000 ou 4000 g de matière active par hectare selon les produits.
(§13) Les espèces végétales utilisées dans cet exemple sont: […]

Setaria faberii = assay: as above; details: 24 days
Text: as §1, §2, §3, §4, §5, §6, §7, §8, §9, §10, §11, §12, §13

Sorghum halepense = assay: as above; details: 24 days
Text: as §1, §2, §3, §4, §5, §6, §7, §8, §9, §10, §11, §12, §13

Digitaria sanguinalis = assay: as above; details: 24 days
Text: as §1, §2, §3, §4, §5, §6, §7, §8, §9, §10, §11, §12, §13

Alopecurus myosuroides = assay: as above; details: 24 days
Text: as §1, §2, §3, §4, §5, §6, §7, §8, §9, §10, §11, §12, §13

Panicum milicaeum = assay: as above; details: 24 days
Text: as §1, §2, §3, §4, §5, §6, §7, §8, §9, §10, §11, §12, §13

soja = assay: Exemple C: selectivity test in field crops, pre-emergence (crop); details: 24 days, 0 or 1 = selective; also: ranges in brackets are in %
Text: as §1, §2, §3, §4, §5, §6, §7, §8, §9, §10, §11, §12
(§14) Les espèces végétales utilisées dans cet exemple sont:
(§15) Comme on peut le voir sur le tableau de résultats de cet exemple C, de nombreux produits présentent une excellente activité antigraminée de prélevée tout en montrant une excellente sélectivité pour 1 ou 2 ou 3 ou 4 des 4 cultures testées = blé, maïs, riz, soja.

riz = assay: as above; details: 24 days, 0 or 1 = selective; also: ranges in brackets are in %
Text: as §1, §2, §3, §4, §5, §6, §7, §8, §9, §10, §11, §12, §14, §15

maïs = assay: as above; details: 24 days, 0 or 1 = selective; also: ranges in brackets are in %
Text: as §1, §2, §3, §4, §5, §6, §7, §8, §9, §10, §11, §12, §14, §15

blé = assay: as above; details: 24 days, 0 or 1 = selective; also: ranges in brackets are in %
Text: as §1, §2, §3, §4, §5, §6, §7, §8, §9, §10, §11, §12, §14, §15

Row | Structure (SMILES) | Notation de l'activité herbicide ECh (Echinochloa crus-galli; dose 0.5 Kg m.a./ha) | Notation de l'activité herbicide SET (Setaria faberii; dose 0.5 Kg m.a./ha) | Notation de l'activité herbicide SOR (Sorghum halepense; dose 0.5 Kg m.a./ha) | Notation de l'activité herbicide ALO (Alopecurus myosuroides; dose 0.5 Kg m.a./ha) | Notation de l'activité herbicide PAN (Panicum milicaeum; dose 0.5 Kg m.a./ha) | Notation de l'activité herbicide GLY (soja; dose 0.5 Kg m.a./ha) | Notation de l'activité herbicide ORY (riz; dose 0.5 Kg m.a./ha) | Notation de l'activité herbicide ZEA (maïs; dose 0.5 Kg m.a./ha) | Notation de l'activité herbicide TRZ (blé; dose 0.5 Kg m.a./ha) | Notation de l'activité herbicide SET (Setaria faberii; dose 1 Kg m.a./ha) | Notation de l'activité herbicide SOR (Sorghum halepense; dose 1 Kg m.a./ha) | Notation de l'activité herbicide DIG (Digitaria sanguinalis; dose 1 Kg m.a./ha) | Notation de l'activité herbicide ALO (Alopecurus myosuroides; dose 1 Kg m.a./ha) | Notation de l'activité herbicide PAN (Panicum milicaeum; dose 1 Kg m.a./ha) | Notation de l'activité herbicide GLY (soja; dose 1 Kg m.a./ha) | Notation de l'activité herbicide ORY (riz; dose 1 Kg m.a./ha) | Notation de l'activité herbicide ZEA (maïs; dose 1 Kg m.a./ha) | Notation de l'activité herbicide TRZ (blé; dose 1 Kg m.a./ha) | further results
1 | O=S(=O)(CC(O)(CBr)c1ccc(F)c(Cl)c1)c1ccsc1 (centres unmarked) [compound 65] | 5 (O à 10) | 0 (90 à 100) | 5 (O à 10) | 0 (90 à 100) | 3 (30 à 50) | 0 (90 à 100) | 3 (30 à 50) | 0 (90 à 100) | 0 (90 à 100) | – | – | – | – | – | – | – | – | – | Notation de l'activité herbicide DIG (Digitaria sanguinalis; dose 0.5 Kg m.a./ha): 5 (O à 10)
2 | C=C(CS(=O)(=O)C=C(C)C)c1ccccc1 [compound 73] | – | – | – | – | – | – | – | – | – | – | – | – | – | – | – | – | – | – | Notation de l'activité herbicide ECh (Echinochloa crus-galli; dose 2 Kg m.a./ha): 5 (O à 10); Notation de l'activité herbicide SET (Setaria faberii; dose 2 Kg m.a./ha): 0 (90 à 100); Notation de l'activité herbicide SOR (Sorghum halepense; dose 2 Kg m.a./ha): 3 (30 à 50); Notation de l'activité herbicide DIG (Digitaria sanguinalis; dose 2 Kg m.a./ha): 3 (30 à 50); Notation de l'activité herbicide ALO (Alopecurus myosuroides; dose 2 Kg m.a./ha): 4 (10 à 30); Notation de l'activité herbicide PAN (Panicum milicaeum; dose 2 Kg m.a./ha): 3 (30 à 50); Notation de l'activité herbicide GLY (soja; dose 2 Kg m.a./ha): 0 (90 à 100); Notation de l'activité herbicide ORY (riz; dose 2 Kg m.a./ha): 0 (90 à 100); Notation de l'activité herbicide ZEA (maïs; dose 2 Kg m.a./ha): 2 (50 à 70); Notation de l'activité herbicide TRZ (blé; dose 2 Kg m.a./ha): 1 (70 à 90)
3 | CC(=O)OC(CBr)(CS(=O)(=O)c1sccc1Br)c1ccccc1 (centres unmarked) [compound 60, 2-acétoxy 3-bromo 1-[(3-bromo 2-thiényl)sulfonyl] 2-phényl propane] | 5 (O à 10) | 4 (10 à 30) | 5 (O à 10) | 2 (50 à 70) | 3 (30 à 50) | 0 (90 à 100) | 0 (90 à 100) | 0 (90 à 100) | 0 (90 à 100) | – | – | – | – | – | – | – | – | – | –
4 | O=S(=O)(CC(O)(CBr)c1cccc(Cl)c1)c1ccsc1 (centres unmarked) [compound 64] | – | – | – | – | – | – | – | – | – | 5 (O à 10) | 2 (50 à 70) | 5 (O à 10) | 3 (30 à 50) | 5 (O à 10) | 0 (90 à 100) | 2 (50 à 70) | 2 (50 à 70) | 0 (90 à 100) | Notation de l'activité herbicide ECh (Echinochloa crus-galli; dose 1 Kg m.a./ha): 5 (O à 10)
5 | C=C(CS(=O)(=O)c1sc(C)nc1C)c1cc(C)cc(C)c1 [compound 46] | – | – | – | – | – | – | – | – | – | 1 (70 à 90) | 1 (70 à 90) | 5 (O à 10) | 5 (O à 10) | 5 (O à 10) | 0 (90 à 100) | 0 (90 à 100) | 0 (90 à 100) | 0 (90 à 100) | Notation de l'activité herbicide ECh (Echinochloa crus-galli; dose 1 Kg m.a./ha): 4 (10 à 30)
6 | O=S(=O)(CC(O)(CBr)c1cccc(F)c1)c1cccs1 (centres unmarked) [compound 53, 1-bromo 2-(3-fluorophényl) 3-(2-thiénylsulfonyl) 2-propanol] | 4 (10 à 30) | 1 (70 à 90) | 4 (10 à 30) | 2 (50 à 70) | 1 (70 à 90) | 0 (90 à 100) | 3 (30 à 50) | 2 (50 à 70) | 0 (90 à 100) | – | – | – | – | – | – | – | – | – | Notation de l'activité herbicide DIG (Digitaria sanguinalis; dose 0.5 Kg m.a./ha): 4 (10 à 30)
7 | Cc1ccsc1S(=O)(=O)CC(O)(CBr)c1ccccc1 (centres unmarked) [compound 63] | – | – | – | – | – | – | – | – | – | 5 (O à 10) | 5 (O à 10) | 5 (O à 10) | 3 (30 à 50) | 4 (10 à 30) | 0 (90 à 100) | 4 (10 à 30) | 2 (50 à 70) | 3 (30 à 50) | –
